Laboratory results from ChEMBL document CHEMBL1133821, “Synthesis and antiinflammatory, analgesic activity of 3,3'-(1,2-ethanediyl)-bis[2-aryl-4-thiazolidinone] chiral compounds. Part 10” (Bioorg Med Chem Lett, 2001).

Assays:
[1] = system: Rattus norvegicus; test: Percent Edema variation in Carrageenan-induced paw edema test at a dose of 100 mg/kg perorally in rats after 120 min; type: functional; details: route oral
[2] = system: Rattus norvegicus; test: Percent Edema variation in Carrageenan-induced paw edema test at a dose of 100 mg/kg perorally in rats after 180 min (p<0.01); type: functional; details: route oral
[3] = system: Rattus norvegicus; test: Reaction time in Hot plate test at a dose of 100 mg/kg perorally in rats after 120 min; type: functional; details: route oral
[4] = Minimum concentration which causes 50% of the Artemia salina larvae to lose mobility; type: ADME, organism-based; details: in vivo
[5] = system: Rattus norvegicus; test: Reaction time in Hot plate test at a dose of 100 mg/kg perorally in rats after 180 min; type: functional; details: route oral
[6] = system: Rattus norvegicus; test: Reaction time in Hot plate test at a dose of 100 mg/kg perorally in rats after 60 min (p<0.05); type: functional; details: route oral
[7] = system: Rattus norvegicus; test: Percent Edema variation in Carrageenan-induced paw edema test at a dose of 100 mg/kg perorally in rats after 60 min; type: functional; details: route oral
[8] = system: Rattus norvegicus; test: Animals with Ulcers in Carrageenan-induced paw edema test at a dose of 100 mg/kg perorally in rats; type: functional; details: route oral
[9] = system: Rattus norvegicus; test: Analgesic activity was determined using acetic acid writing test at a dose of 100 mg/kg perorally in rats. (p<0.01); type: functional; details: route oral
[10] = system: Rattus norvegicus; test: Animals with Hyperemia in Carrageenan-induced paw edema test at a dose of 100 mg/kg perorally in rats; type: functional; details: route oral
[11] = Peroral dose causing 50% death of the mice population; type: ADME, organism-based; details: mouse, in vivo, po
[12] = system: Rattus norvegicus; test: Number of writhings in Acetic acid Writhing test at a dose of 100 mg/kg perorally in rats(p<0.05); type: functional; details: route oral
[13] = system: Rattus norvegicus; test: Number of writhings in Acetic acid Writhing test at a dose of 100 mg/kg perorally in rats; type: functional; details: route oral
[14] = system: Rattus norvegicus; test: Percent Edema variation in Carrageenan-induced paw edema test at a dose of 50 mg/kg perorally in rats after 60 min (p<0.01); type: functional; details: route oral
[15] = system: Rattus norvegicus; test: Percent Edema variation in Carrageenan-induced paw edema test at a dose of 100 mg/kg perorally in rats after 60 min (p<0.001); type: functional; details: route oral
[16] = system: Rattus norvegicus; test: Reaction time in Hot plate test at a dose of 100 mg/kg perorally in rats after 60 min; type: functional; details: route oral
[17] = system: Rattus norvegicus; test: Percent Edema variation in Carrageenan-induced paw edema test at a dose of 50 mg/kg perorally in rats after 120 min; type: functional; details: route oral
[18] = system: Rattus norvegicus; test: (§1) Animals with Hyperemia in Carrageenan-induced paw edema test at a dose of 50 mg/kg perorally in rats; type: functional; details: route oral
[19] = system: Rattus norvegicus; test: (§2) Animals with Ulcers in Carrageenan-induced paw edema test at a dose of 50 mg/kg perorally in rats; type: functional; details: route oral
[20] = system: Rattus norvegicus; test: Percent Edema variation in Carrageenan-induced paw edema test at a dose of 100 mg/kg perorally in rats after 180 min; type: functional; details: route oral
[21] = system: Rattus norvegicus; test: Percent Edema variation in Carrageenan-induced paw edema test at a dose of 50 mg/kg perorally in rats after 180 min; type: functional; details: route oral
[22] = system: Rattus norvegicus; test: Analgesic activity was determined using acetic acid writing test at a dose of 100 mg/kg perorally in rats.; type: functional; details: route oral
[23] = as §1; type: functional; details: route oral
[24] = system: Rattus norvegicus; test: Percent Edema variation in Carrageenan-induced paw edema test at a dose of 100 mg/kg perorally in rats after 180 min (p<0.001); type: functional; details: route oral
[25] = Percent Edema variation in Carrageenan-induced paw edema test at a dose of 50 mg/kg perorally in rats after 180 min (p<0.001); type: functional; details: route oral
[26] = system: Rattus norvegicus; test: Analgesic activity was determined using acetic acid writing test at a dose of 100 mg/kg perorally in rats.(p<0.05); type: functional; details: route oral
[27] = as §2; type: functional; details: route oral
[28] = Percent Edema variation in Carrageenan-induced paw edema test at a dose of 50 mg/kg perorally in rats after 120 min (p<0.01); type: functional; details: route oral
[29] = (§3) Percent Edema variation in Carrageenan-induced paw edema test at a dose of 50 mg/kg perorally in rats after 60 min; type: functional; details: route oral
[30] = system: Rattus norvegicus; test: Percent Edema variation in Carrageenan-induced paw edema test at a dose of 100 mg/kg perorally in rats after 120 min (p<0.001); type: functional; details: route oral
[31] = system: Rattus norvegicus; test: Analgesic activity was determined using acetic acid writing test at a dose of 50 mg/kg perorally in rats. (p<0.01); type: functional; details: route oral
[32] = system: Rattus norvegicus; test: Percent Edema variation in Carrageenan-induced paw edema test at a dose of 50 mg/kg perorally in rats after 180 min (p<0.01); type: functional; details: route oral
[33] = system: Rattus norvegicus; test: Number of writhings in Acetic acid Writhing test at a dose of 50 mg/kg perorally in rats; type: functional; details: route oral
[34] = system: Rattus norvegicus; test: Reaction time in Hot plate test at a dose of 50 mg/kg perorally in rats after 120 min (p<0.01); type: functional; details: route oral
[35] = system: Rattus norvegicus; test: Reaction time in Hot plate test at a dose of 50 mg/kg perorally in rats after 60 min (p<0.01); type: functional; details: route oral
[36] = system: Rattus norvegicus; test: Reaction time in Hot plate test at a dose of 50 mg/kg perorally in rats after 180 min (p<0.01); type: functional; details: route oral
[37] = system: Rattus norvegicus; test: as §3; type: functional; details: route oral

Structure (SMILES) | Edema variation [1] [%] | Reaction time [3] [s] | LC50 [4] [µg/mL] | Reaction time [5] [s] | Reaction time [6] [s] | Edema variation [7] [%] | Animals [8] [%] | Animals [10] [%] | LD50 [11] [mg/kg] | No. of writhings [13] | Edema variation [17] [%] | Animals [19] [%] | other results
Cc1cccc([C@H]2SCC(=O)N2CCN2C(=O)CS[C@H]2c2cccc(C)c2)c1 | -13.05 | 11.1 | > 1000 | 11 | 18.4 | 25.6 | 20 | 80 | > 1000 | – | – | – | Edema variation [2]: -55.81%; inhibition in vivo at 100 mg/kg [9]: 64%; No. of writhings [12]: 7.3
COc1cccc([C@H]2SCC(=O)N2CCN2C(=O)CS[C@H]2c2cccc(OC)c2)c1 | -12.7 | 12 | > 1000 | 10.7 | – | – | 0 | 20 | > 1000 | 8.1 | -8.15 | 0 | Edema variation [14]: -38.29%; Edema variation [15]: -65.3%; Reaction time [16]: 12.1 s; Animals [18]: 20%; Edema variation [20]: 20.1%; Edema variation [21]: 29.59%; inhibition in vivo at 100 mg/kg [22]: 60%
COc1ccc([C@H]2SCC(=O)N2CCN2C(=O)CS[C@H]2c2ccc(OC)cc2)cc1 | – | 15.6 | > 1000 | 15 | 17 | 20.23 | 0 | 40 | > 1000 | 11.3 | – | – | Animals [23]: 20%; Edema variation [24]: -96.42%; Edema variation [25]: -66.97%; inhibition in vivo at 100 mg/kg [26]: 44%; Animals [27]: 0%; Edema variation [28]: -49%; Edema variation [29]: 14.08%; Edema variation [30]: -75.9%
CCCCC1C(=O)N(c2ccccc2)N(c2ccccc2)C1=O [PHENYLBUTAZONE] | – | – | – | – | – | – | – | 100 | 300 | – | -5.25 | 80 | inhibition in vivo at 50 mg/kg [31]: 82%; Edema variation [32]: -39.02%; No. of writhings [33]: 3.6; Reaction time [34]: 30 s; Reaction time [35]: 28.3 s; Reaction time [36]: 31.7 s; Edema variation [37]: -20.27%
